Results as given in US9718835B2 (China Medical University Hospital, priority 2013, dated 2017).
Like-named read-outs stand apart in the source and are kept apart here.

Experiments:
[1] = system: KBvin (vincristine-resistant KB subline); assay: Sulforhodamine B cytotoxicity assay, KBvin; type: cell-based, human; details: Homo sapiens, KBVIN
Source text: (§1) The human tumor cell lines used in this manuscript were A-549 (lung carcinoma), MDA-MB-231 (triple-negative breast cancer), DU-145 (hormone-insensitive prostate cancer), KB (originally isolated from epidermoid carcinoma of the nasopharynx), KBvin (vincristine-resistant KB subline), and HCT116 (colorectal adenocarcinoma). These cell lines were obtained from the Lineberger Comprehensive Cancer Center (UNC-CH) or from ATCC (Manassas, Va.), except KBvin, which was a generous gift of Professor Y.-C. Cheng (Yale University). All cell lines were maintained and assayed in RPMI-1640 medium containing 2 mM L-glutamine and 25 mM HEPES (HyClone), supplemented with 10% heat-inactivated fetal bovine serum (HyClone), 100 μg/mL streptomycin, 100 IU/mL penicillin, and 0.25 μg/mL amphotericin B (Cellgro) in a humidified atmosphere containing 5% CO2 in air. […] The 4-6×10^3 cells/well were cultured for 72 h with various concentrations of test compounds in 96-well plate at 37° C. […] Each assay was performed in triplicate with duplicated samples.

[2] = i.p.; cited from earlier work
A-549 (lung carcinoma) = assay: Sulforhodamine B cytotoxicity assay, A-549; type: cell-based, human; details: Homo sapiens, A549; Table 1; 72 h; average ± SD
Source text: as §1

[3] = target: T1, recombinant human Topoisomerase I (Homo sapiens, UniProt P11387); assay: Topoisomerase I activity assay in a cell-free system; type: biochemical; details: purified recombinant human Topo I
T1 construct: purchased TopoGEN
T1 sequence (P11387 1-765): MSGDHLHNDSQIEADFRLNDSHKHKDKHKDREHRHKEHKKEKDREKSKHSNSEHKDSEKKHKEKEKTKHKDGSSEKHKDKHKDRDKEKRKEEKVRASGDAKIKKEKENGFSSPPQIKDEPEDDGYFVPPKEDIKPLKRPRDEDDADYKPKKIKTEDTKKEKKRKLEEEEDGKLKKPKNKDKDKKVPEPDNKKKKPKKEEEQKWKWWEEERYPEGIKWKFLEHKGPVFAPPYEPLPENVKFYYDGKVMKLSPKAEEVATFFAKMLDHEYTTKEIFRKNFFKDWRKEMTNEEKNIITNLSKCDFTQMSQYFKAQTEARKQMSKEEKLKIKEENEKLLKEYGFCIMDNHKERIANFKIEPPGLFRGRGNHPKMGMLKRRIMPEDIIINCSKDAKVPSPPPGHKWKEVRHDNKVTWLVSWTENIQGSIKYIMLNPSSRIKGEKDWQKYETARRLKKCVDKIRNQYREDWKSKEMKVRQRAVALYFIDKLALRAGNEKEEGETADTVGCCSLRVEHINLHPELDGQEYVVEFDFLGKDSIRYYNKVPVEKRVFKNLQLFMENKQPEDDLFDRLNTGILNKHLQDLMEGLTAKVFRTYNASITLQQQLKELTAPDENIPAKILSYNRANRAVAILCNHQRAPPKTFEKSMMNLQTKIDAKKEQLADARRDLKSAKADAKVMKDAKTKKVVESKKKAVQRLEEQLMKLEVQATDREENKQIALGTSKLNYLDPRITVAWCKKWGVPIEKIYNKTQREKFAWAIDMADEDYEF
Method: Inhibition of Topo I activity by 9a in a cell-free system. A 1-delivative with an esterified 20-hydroxy group is expected to be activated by digestion with carboxylesterases. […] We authenticated the inhibitory effect of 9a against Topo I in a dose-dependent manner Thus, we confirmed that 9a is a new class of Topo I inhibitor.
One unit of recombinant human Topoisomerase I enzyme (TopoGEN) was pre-incubated for 20 min at 37° C. with vehicle, 9a, 1, 3, or SN-38 in a final volume of 20 μL reaction buffer (10 mM Tris-HCl, pH 7.9, 1 mM EDTA, 150 mM NaCl, 0.1% BSA, 0.1 mM spermidine, 5% glycerol) was then incubated with 250 ng of supercoiled plasmid DNA for 20 min. The supercoiled, relaxed, or nicked DNA was separated by 1% agarose gel in 1×TAE (Tris-Acetate-EDTA) buffer. Ethidium bromide stained agarose gel was photographed using Gel Doc XR (Bio-Rad).

[4] = system: human colorectal adenocarcinoma HCT116 xenograft; assay: Xenograft model antitumor assay; type: in vivo, nu/nu mice
Method: Xenograft model antitumor assay using human colorectal adenocarcinoma cell line HCT116 was performed according to the regimen in Table 2. The 31-day study utilized four groups of mice (n=8) bearing established HCT116 xenograft with mean volumes of approximately 200 mm^3 on day one. The tumor growth and animal body weight change for each treatment group were measured three times per week (FIGS. 2 and 3). Compound 9a was administered intravenously (i.v.) for 7 days and then intraperitoneally (i.p.) at 5 and 10 mg/kg once every day (QD) to the end.
Five- to six-week-old female nu/nu mice (National Laboratory Animal Center, Taiwan) were inoculated subcutaneously with 2×10^6 human colorectal adenocarcinoma HCT116 cells in flank. When the grafted tumor volume reached the average volume of 200 mm^3, mice were randomly divided into four groups (n=8). Vehicle control and compound 9a at 5 or 10 mg/kg were administered i.v. once a day (QD) for 7 days and then i.p. once a day to the end. As an experimental control group, 100 mg/kg of compound 3 was administered i.v. once a week (QWK) to the end. The length (L) and width (W) of graft was measured every 3 to 4 days to the end, and the tumor volume was calculated as LW^2/2. Results were evaluated statistically by Student's t-test. This study was approved by the Institutional Animal Care and Use Committee (IACUC) of the National Taiwan University (Taipei, Taiwan), and was performed according to the institutional guidelines.

[5] = system: KB (epidermoid carcinoma of the nasopharynx); assay: Sulforhodamine B cytotoxicity assay, KB; type: cell-based, human; details: Homo sapiens
Method: (§2) The 12 novel 1-derivatives 9a-l were evaluated for in vitro antiproliferative activity against four human tumor cell lines, KB (nasopharyngeal), A-549 (lung), DU-145 (prostate), and KBvin (MDR KB subline), by using a sulforhodamine B colorimetric assay with triplicate experiments.^30 Compounds 1 and 3 were used as controls.
(§3) The human tumor cell lines used in this manuscript were A-549 (lung carcinoma), MDA-MB-231 (triple-negative breast cancer), DU-145 (hormone-insensitive prostate cancer), KB (originally isolated from epidermoid carcinoma of the nasopharynx), KBvin (vincristine-resistant KB subline), and HCT116 (colorectal adenocarcinoma). These cell lines were obtained from the Lineberger Comprehensive Cancer Center (UNC-CH) or from ATCC (Manassas, Va.), except KBvin, which was a generous gift of Professor Y.-C. Cheng (Yale University). All cell lines were maintained and assayed in RPMI-1640 medium containing 2 mM L-glutamine and 25 mM HEPES (HyClone), supplemented with 10% heat-inactivated fetal bovine serum (HyClone), 100 μg/mL streptomycin, 100 IU/mL penicillin, and 0.25 μg/mL amphotericin B (Cellgro) in a humidified atmosphere containing 5% CO2 in air. Compound stock solutions were prepared at 10 mM in DMSO and diluted with culture medium with the final DMSO concentration ≦0.01% (v/v), a concentration without effect on cell growth. The 4-6×10^3 cells/well were cultured for 72 h with various concentrations of test compounds in 96-well plate at 37° C. […] Each assay was performed in triplicate with duplicated samples.

[6] = system: DU-145 (hormone-insensitive prostate cancer); assay: Sulforhodamine B cytotoxicity assay, DU-145; type: cell-based, human; details: Homo sapiens, DU-145; Table 1; 72 h; average ± SD
Method: as §2, §3

Topo I = target: T2, Topo I (Homo sapiens, UniProt P11387); assay: Topo I activity assay, nuclear extracts of treated A-549 cells, supercoiled DNA; type: cell-based; design: Nuclear extracts from 9a-treated A-549 cells were incubated with supercoiled DNA (for Topo I); endogenous in cells; host or cells: A-549
T2 sequence (P11387 1-765): T1 sequence (P11387 1-765)
Method: (§4) First, we determined the effect of 9a on cell cycle distribution using flow cytometry analysis. […] Because it has been shown that 1-Topo I-DNA covalent complexes enhance the transcription-dependent degradation of Topo I via a 26S proteasome pathway,^32 the effects of 9a on the expression levels of Topo I and Topo II were investigated.
(§5) Topo I activity test was performed using an assay kit (TopoGEN) according to the manufacturer's instructions. Nuclear extracts from 9a-treated A-549 cells were incubated with supercoiled DNA (for Topo I) or catenated kDNA (for Topo II) for 30 min at 37° C. Reaction mixture was separated by is 1% agarose gel in 1×TAE buffer. The gel was stained with ethidium bromide and photographed using Gel Doc XR (Bio-Rad).

Topo II = Topo II activity assay, nuclear extracts of treated A-549 cells, catenated kDNA; type: cell-based, human
Source text: as §4, with “investigated. […] Compound 9a acts directly on Topo I and results in the accumulation of covalent Topo I-DNA complexes followed by proteasomal Topo I degradation, which is the same effect as 1 and contributes to 9a's cytotoxicity.” for “investigated.”
as §5

[7] = system: MDA-MB-231 (triple-negative breast cancer); assay: Sulforhodamine B cytotoxicity assay, MDA-MB-231; type: cell-based; details: Homo sapiens, Table 4, read-out: IC50 (Average ± SD) MDA-MB-231
Source text: as §1

In the case of `CCc1c2c(nc3ccc(OC(=O)N4CCC(N5CCCCC5)CC4)cc13)-c1cc3c(c(=O)n1C2)COC(=O)[C@]3(O)CC` [Compound 3, irinotecan, reference compound], the IC50 ([1]; Table 1, 72 h, average ± SD, read-out: IC50 KBvin) is listed as over 20 µM, the LD50 [2] is listed as 177.5 mg/kg and the IC50 (A-549 (lung carcinoma)) is listed as 9.5 ± 0.11 µM. For the same compound, the “Inhibition of Topo I activity (relaxation/nicking of supercoiled plasmid DNA)” value [3] was “no inhibitory effect on Topo I activity”, the “mice showing complete regression” value ([4]; 100 mg/kg QWK i.v., n=8) was “three mice” and the “antitumor activity in vivo (tumor growth)” value ([4]; 100 mg/kg QWK, P<0.001) was “exhibited antitumor activity”. For the same compound, the IC50 ([5]; Table 1, 72 h, average ± SD, read-out: IC50 KB) was 9.8 ± 0.48 µM and the IC50 [6] was 9.3 ± 0.61 µM.

In the case of `CC[C@@]1(O)C(=O)OCc2c1cc1n(c2=O)Cc2cc3ccccc3nc2-1` [Compound 1, Camptothecin, reference compound], the LD50 [2] is given as 56.2 mg/kg, the “Topo I-mediated relaxation of supercoiled DNA” value (Topo I) is given as “inhibited the relaxation of supercoiled DNA” and the “Inhibition of Topo I activity (relaxation/nicking of supercoiled plasmid DNA)” value [3] is given as “inhibited Topo I activity”. The “Topo II decatenation of kDNA” value (Topo II) was “failed to decatenate kineoplast DNA” and the IC50 [6] was 0.029 ± 0.0025 µM.

With `CC[C@@]1(O)C(=O)OCc2c1cc1n(c2=O)Cc2cc3c(CN(C)C)c(O)ccc3nc2-1` [Compound 2, topotecan, reference compound] the IC50 ([1]; Table 4, read-out: IC50 (Average ± SD) KBvin) was 0.4 ± 0.021 µM, the IC50 ([5]; Table 4, read-out: IC50 (Average ± SD) KB) was 0.063 ± 0.0042 µM and the IC50 [7] was 0.1 ± 0.0055 µM.

With `COc1cc([C@@H]2c3cc4c(cc3[C@@H](O[C@@H]3O[C@@H]5CO[C@@H](C)O[C@H]5[C@H](O)[C@H]3O)[C@H]3COC(=O)[C@H]23)OCO4)cc(OC)c1O` [etoposide] the “Topo II decatenation of kDNA” value (Topo II) was “effectively blocked the decatenation of kDNA”.
